Source: patent publication US6020340A, “Imidazopyridines” (Byk Gulden Lomberg Chemische Fabrik GmbH, priority 1996, dated 2000)

System: PDE IV
Experiment: Inhibition of PDE IV activity (method of Bauer and Schwabe, adapted to microtiter plates)
Assay type: biochemical

Structure (SMILES): COc1ccc(-c2nc3ncccc3[nH]2)c2cc(C(C)C)oc12 [Compound 1, 2-[7-Methoxy-2-(1-methylethyl)benzofuran-4-yl]imidazo[4,5-b]pyridine]
- Inhibition of PDE IV activity, -log IC50: 7.41

Structure (SMILES): CC(C)c1cc2c(-c3nc4ncccc4[nH]3)ccc(OC(F)F)c2o1 [Compound 2, 2-[7-Difluoromethoxy-2(1-methylethyl)benzofuran-4yl]imidazo[4,5-b]pyridine]
- Inhibition of PDE IV activity, -log IC50: 8.14

Structure (SMILES): COc1ccc(-c2nc3ncccc3[nH]2)c2c1OC1(C=C2)CCCC1 [Compound 3, 2-[8-Methoxy-2,2-tetramethylene-1[2H]chromen-5-yl]imidazo[4,5-b]pyridine]
- Inhibition of PDE IV activity, -log IC50: 5.83

Structure (SMILES): COc1ccc(-c2nc3cnccc3[nH]2)c2cc(C3CCCC3)oc12 [Compound 4, 2-(2Cyclopentyl-7-methoxy-benzofuran-4-yl)imidazo[4,5-c]pyridine]
- Inhibition of PDE IV activity, -log IC50: 7.74

Structure (SMILES): COc1ccc(-c2nc3cnccc3[nH]2)c2c1OC1(C=C2)CCCC1 [Compound 5, 2-[8-Methoxy-2,2-tetramethylene-1[2H]chromen-5-yl]imidazo[4,5-c]pyridine]
- Inhibition of PDE IV activity, -log IC50: 6.76

Structure (SMILES): CC(C)c1cc2c(-c3nc4cnccc4[nH]3)ccc(OC(F)F)c2o1 [Compound 6, 2-[7-Difluoromethoxy-2-(1-methylethyl)benzofuran-4-yl]imidazo[4,5-c]pyridine]
- Inhibition of PDE IV activity, -log IC50: 8.38

Structure (SMILES): COc1ccc(-c2nc3cnccc3[nH]2)c2cc(C(C)C)oc12 [Compound 7]
- Inhibition of PDE IV activity, -log IC50: 8.09
